Entries after “also recorded” stand apart in the source; their conditions may differ.
Key:
ST2L [1] = experiment: ST2L protein stability in primary MEFs treated with CHX (immunoblot, flow cytometry); assay type: cell-based, mouse
Protocol: (§1) Primary mouse embryonic fibroblast cells (MEFs) were prepared as previously described^35. Briefly, mouse embryos were collected around embryonic day 14. Visible organs such as the brain, liver, and spleen were removed, and the leftover tissue was quickly minced and incubated in 0.25% trypsin-EDTA for 2 hr at 37° C. Cells were then washed with media and seeded in DMEM with 10% FBS, 1% penicillin/streptomycin and 0.055 mM β-mercaptoethanol. Every three days cells were passaged. Starting at passage 2, cells were used for studies.
Dead cells were routinely excluded with Zombie UV Fixable Viability Kit (BioLegend) or Fixable Aqua Dead Cell Stain (Thermo Fisher Scientific). Lineage-positive cells were excluded by staining for B220 (RA3-6B2), […] (145-2C11), TCRβ (H57-597), TCRγδ (eBioGL3), Ter119 (Ter119), NK1.1 (PK136), CD11b (M1/70), and CD11c (N418). For surface staining CD45 (30-F11), KLRG1 (2F1), CD25 (PC61.5), CD127 (A7R34), Sca1 (D7), Thy1/CD90.2 (53-2.1), and ST2 (RMST2-2, eBioscience) were used. For intracellular staining, cells were fixed and permeabilized with the Transcription Buffer Set (BD Pharmingen) per manufacturer's instructions followed by staining with anti-GATA3 (TWAJ, eBioscience), anti-IL-5 (TRFK5, Biolegend) and anti-IL-13 (eBio13A, eBioscience). Stained cells were used for flow cytometry analysis using a LSRII or Attune NxT (Becton Dickinson, BD) flow cytometer. Data were analyzed using the FlowJo software. Different cell types were identified by the following gating strategies^36,37: lung ILC2s (CD45^+Lin KLRG1^+CD90^+ or CD45^+Lin GATA3^+CD90^+CD25^+), BM ILC2P (CD45^+Lin^− CD127^+CD25^+).
(§2) Protein extracts from cells or tissues were prepared using whole protein lysis buffer (WL buffer) containing 50 mM Tris (pH 8), 0.4M NaCl, 0.5% NP-40, 10% glycerol, 1 mM EDTA, 1 mM DTT, and 1 mM PMSF as described previously^39. To extract proteins from MEFs, cells were washed with PBS once and then lysed with WL buffer on ice for 30 min. Lung or brain tissues from mice that had been euthanized and perfused with cold PBS were directly homogenized in the presence of WL buffer or alternatively, tissues were briefly disrupted in PBS and the insoluble fractions were then lysed in WL buffer for protein extraction. Immunoblot analysis was performed using the following antibodies: anti-ST2L (R3880-2, Abiocode), anti-ST2 (M3880-1, Abiocode), anti-SV2A (M3004-1, Abiocode), anti-Tubulin (M0267-1b, Abiocode).

SV2A protein [2] = molecular target: T1, SV2A protein (Mus musculus, UniProt Q9JIS5); experiment: Immunoblot analysis of SV2A protein in lungs and brain of intranasally treated mice; assay type: in vivo
T1 construct: from tissue; host or cells: lung and brain of C57BL/6 mice
T1 sequence (Q9JIS5 whole entry): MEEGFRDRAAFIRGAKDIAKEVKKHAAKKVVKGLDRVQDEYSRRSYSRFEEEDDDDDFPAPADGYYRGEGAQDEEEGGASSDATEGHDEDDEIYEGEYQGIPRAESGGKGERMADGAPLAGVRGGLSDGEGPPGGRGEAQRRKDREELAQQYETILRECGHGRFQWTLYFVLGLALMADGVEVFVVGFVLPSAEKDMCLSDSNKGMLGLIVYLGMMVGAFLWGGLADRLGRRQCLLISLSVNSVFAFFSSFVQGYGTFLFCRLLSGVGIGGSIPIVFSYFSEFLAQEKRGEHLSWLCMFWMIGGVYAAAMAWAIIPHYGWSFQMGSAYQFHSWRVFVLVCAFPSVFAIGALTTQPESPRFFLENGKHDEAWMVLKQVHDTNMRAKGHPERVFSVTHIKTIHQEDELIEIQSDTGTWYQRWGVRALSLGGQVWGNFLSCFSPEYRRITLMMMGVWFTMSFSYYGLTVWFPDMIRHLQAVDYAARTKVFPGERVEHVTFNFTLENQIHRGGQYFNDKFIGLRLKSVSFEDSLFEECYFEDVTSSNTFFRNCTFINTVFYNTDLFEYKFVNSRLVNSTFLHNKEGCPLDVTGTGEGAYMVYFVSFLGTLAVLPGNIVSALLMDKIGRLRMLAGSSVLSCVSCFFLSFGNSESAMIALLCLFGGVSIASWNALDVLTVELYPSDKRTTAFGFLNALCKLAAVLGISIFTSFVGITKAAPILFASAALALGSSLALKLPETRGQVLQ
Description: (§3) Sv2a^+/− mice on C57BL/6 129Sv mixed genetic background^21 were purchased from the Jackson laboratory (B6;129P2-Sv2a^tm1SudSv2b^tm1Sud/J) and were backcrossed to C57 background for at least 5 generations prior to use. Mice were housed under specific-pathogen-free conditions. Sex-matched littermates between 6 and 16 weeks of age were used for experiments if not otherwise indicated. C57BL/6 mice were purchased from the Jackson Laboratory or the UCLA animal core facility. C57BL/6 mice were randomly assigned to treatment groups after matching for sex and age. […] For the IL-33 or papain-induced lung inflammation models, mice were treated intranasally on days 1, 2, and 3. Bone marrows and lungs were harvested, processed, and analyzed on day 4. The inventors were not blinded to allocation during the studies. All studies were conducted in accordance with animal protocols approved by the Animal Research Committee of the University of California Los Angeles.
(§4) Protein extracts from cells or tissues were prepared using whole protein lysis buffer (WL buffer) containing 50 mM Tris (pH 8), 0.4M NaCl, 0.5% NP-40, 10% glycerol, 1 mM EDTA, 1 mM DTT, and 1 mM PMSF as described previously^39. To extract proteins from MEFs, cells were washed with PBS once and then lysed with WL buffer on ice for 30 min. […]

lung ILC2s [3] = experiment: Flow cytometry analysis of lung ILC2 responses in LEV-treated naive mice; assay type: in vivo, mouse; details: LEV 17 mg/kg intranasal daily day 1, 2, 3
Description: as §3
Mice were euthanized and perfused with cold PBS. Lung lobes were diced into small pieces and incubated with 0.2 mg/mL collagenase P. 0.8 mg/mL Dispase II, 0.1 mg/mL DNase I in RPMI1640 containing 5% FBS for 1 hr at 37° C. before being mashed through […] cell strainers. Bone marrow cells were collected by flushing out the marrow from femurs and tibias using a syringe with PBS. Red blood cells were removed using RBC lysis buffer (Sigma-Aldrich, Cat #: R7757) according to the manufacturer's recommendations followed by 1×PBS wash. After saturating the Fc-receptors with CD16/CD32-blocking antibody (BioLegend), single-cell suspensions were incubated on ice with conjugated antibodies in PBS (Ca^2+ and Mg^2+-free).
Dead cells were routinely excluded with Zombie UV Fixable Viability Kit (BioLegend) or Fixable Aqua Dead Cell Stain (Thermo Fisher Scientific). Lineage-positive cells were excluded by staining for B220 (RA3-6B2), […] (145-2C11), TCRβ (H57-597), TCRγδ (eBioGL3), Ter119 (Ter119), NK1.1 (PK136), CD11b (M1/70), and CD11c (N418). […] Data were analyzed using the FlowJo software. […]

lung ILC2s [4] = experiment: Papain-induced mouse lung inflammation model, flow cytometry of lung ILC2s; assay type: in vivo; details: papain 50 μg + LEV 17 mg/kg intranasal daily day 1, 2, 3; day 4; vs papain alone
Description: as §3
(§5) Mice were euthanized and perfused with cold PBS. […]
(§6) Dead cells were routinely excluded with Zombie UV Fixable Viability Kit (BioLegend) or Fixable Aqua Dead Cell Stain (Thermo Fisher Scientific). […] Data were analyzed using the FlowJo software. […]

BM ILC2P = experiment: Flow cytometry analysis of bone marrow ILC2P in LEV-treated mice; assay type: in vivo, mouse; details: LEV 17 mg/kg intranasal daily day 1, 2, 3; BM harvested day 4
Description: as §3, §5, §6

ST2L [5] = experiment: Immunoblot analysis of ST2L in lungs of LEV-treated mice; assay type: in vivo, mouse; details: LEV intranasal for 4 hr or daily for three consecutive days (3D), vs PBS
Description: as §3, §4

SV2A protein [6] = molecular target: T1, SV2A protein; experiment: Cell-free protein stability assay (lung or brain protein extracts, immunoblot with anti-SV2A); assay type: biochemical
Protocol: Proteins extracts were prepared by incubating WL buffer with brain or lung tissues that had been pre-washed with PBS. […] The reaction mixtures were subsequently incubated at 37° C. for 1 hr, and the reactions were terminated by adding 20 μl of 4×SDS sample buffer followed by denaturing at 95° C. for 5 min. The samples were then analyzed directly by immunoblot analysis.
These two models were tested using the in vitro cell-free protein stability assays. […] We prepared two groups of reaction mixtures by mixing 0.2 μg of brain protein extract from WT mice with an excessive amount of either brain protein extract or lung protein extract prepared from Sv2a^−/− pup.

Sv2a mRNA = experiment: Q-PCR analysis of lung Sv2a gene expression in intranasally treated mice; assay type: in vivo, mouse; details: IL-33 100 ng intranasal, 4 hr
Description: as §3, with “For the IL-33 or papain-induced lung inflammation models, mice were treated intranasally on days 1, 2, and 3. Bone marrows and lungs were harvested, processed, and analyzed on day 4.” left out
Quantitative real time polymerase chain reaction (Q-PCR) analyses were performed as described^38. Briefly, cDNA prepared using the iScript cDNA Synthesis kit (Bio-Rad) were analyzed by Q-PCR using the CFX-96 Real-Time Detection System (Bio-Rad). The Q-PCR primer sequences of genes were: Sv2a forward—[…] (SEQ ID NO:2), Sv2a reverse […] (SEQ ID NO:3), St2l forward […] (SEQ ID NO:4), St2l reverse […] (SEQ ID NO:5), sSt2 forward—[…] (SEQ ID NO:6), sSt2 reverse […] (SEQ ID NO:7). Il1rap forward—[…] (SEQ ID NO:8), Il1rap reverse—[…] (SEQ ID NO:9), Il5 forward—[…] (SEQ ID NO:10), Il5 reverse—[…] (SEQ ID NO:11), Il13 forward—[…] […]

Il13 and Il5 = experiment: Q-PCR analysis of Il13 and Il5 gene induction in primary MEFs treated with IL-33; assay type: cell-based, mouse; details: WT MEFs
Protocol: as §1
Quantitative real time polymerase chain reaction (Q-PCR) analyses were performed as described^38. Briefly, cDNA prepared using the iScript cDNA Synthesis kit (Bio-Rad) were analyzed by Q-PCR using the CFX-96 Real-Time Detection System (Bio-Rad). The Q-PCR primer sequences of genes were: Sv2a forward—[…] (SEQ ID NO:2), Sv2a reverse […] (SEQ ID NO:3), St2l forward […] (SEQ ID NO:4), St2l reverse […] (SEQ ID NO:5), sSt2 forward—[…] (SEQ ID NO:6), sSt2 reverse […] (SEQ ID NO:7). Il1rap forward—[…] (SEQ ID NO:8), Il1rap reverse—[…] (SEQ ID NO:9), Il5 forward—[…] (SEQ ID NO:10), Il5 reverse—[…] (SEQ ID NO:11), Il13 forward—[…] (SEQ ID NO:12), Il13 reverse—[…] (SEQ ID NO:13), Hprt forward—[…] (SEQ ID NO:14), Hprt reverse—[…] (SEQ ID NO:15), Gapdh forward—[…] (SEQ ID NO:16), Gapdh reverse—[…] (SEQ ID NO:17).

ST2L [7] = experiment: Immunoblot analysis of ST2L expression in primary MEFs treated with IL-33; assay type: cell-based, mouse
Protocol: as §1, §2

C[C@@H]1C[C@@H]([C@H](O)CC2CC(=O)NC(=O)C2)C(=O)[C@@H](C)C1 [CHX, cycloheximde]
ST2L expression (immunoblot) (ST2L [1]; Sv2a KO MEFs, 6 hr after CHX treatment): no longer detectable | reduction of percentage of ST2+ cells (flow cytometry) (ST2L [1]; Sv2a KO MEFs, CHX 20 hr): more than 15 fold | percentage of ST2+ cells after CHX (ST2L [1]; Sv2a KO MEFs, CHX 20 hr (from 13.7% untreated)): 0.78% | ST2L expression (immunoblot) (ST2L [1]; WT MEFs, 6 hr after CHX treatment): only modestly reduced | ST2L expression (immunoblot) (ST2L [1]; WT MEFs, CHX for 20 hr): remained to be detectable | reduction of ST2+ cells (flow cytometry) (ST2L [1]; WT primary MEFs, CHX 20 hr): about 3 fold | percentage of ST2+ cells after CHX (ST2L [1]; WT primary MEFs, CHX 20 hr (from 20.5% untreated)): 6.35%

CC[C@@H](C(N)=O)N1CCCC1=O [LEV, (S)-(−)-α-ethyl-2-oxo-1-pyrrolidine acetamide]
SV2A protein in the brain (immunoblot) (SV2A protein [2]; LEV 17 mg/kg intranasal, C57/BL6 mice): did not reduce | populations of lung ILC2 cells producing IL-13 and IL-5 (lung ILC2s [3]; day 4): suppressed | reduction of the cell numbers of lung ILC2s (lung ILC2s [3]; lungs harvested day 4): about 50% | reduction of the frequency of lung ILC2s (lung ILC2s [3]; lungs harvested day 4): about 50% | frequency of lung ILC2s, papain-induced ILC2 responses (lung ILC2s [4]): reducing | production of IL-5 and IL-13 by lung ILC2s, papain-induced (lung ILC2s [4]): blocking | development of BM ILC2P (BM ILC2P): suppressed | ST2L protein in the lungs (immunoblot) (ST2L [5]): clear suppression; also recorded: reduced | degradation of brain SV2A protein with excess lung protein extracts from Sv2a-/- pup (SV2A protein [6]; 0.2 μg WT brain extract, 10 mM LEV): completely degraded | degradation of brain SV2A protein with excess brain protein extracts from Sv2a-/- pup (SV2A protein [6]; 0.2 μg WT brain extract, LEV 0.1 mM, 0.5 mM, 10 mM): did not cause the degradation | SV2A protein in brain extracts (SV2A protein [6]; brain extracts, LEV, similar conditions (37° C.)): failed to reduce

B1: IL-33: alarmin cytokine that signals through its receptor ST2; used as stimulus (R&D) (protein, UniProt O95760 1-270, looked up)
Interleukin-33: MKPKMKYSTNKISTAKWKNTASKALCFKLGKSQQKAKEVCPMYFMKLRSGLMIKKEACYFRRETTKRPSLKTGRKHKRHLVLAACQQQSTVECFAFGISGVQKYTRALHDSSITGISPITEYLASLSTYNDQSITFALEDESYEIYVEDLKKDEKKDKVLLSYYESQHPSNESGDGVDGKMLMVTLSPTKDFWLHANNKEHSVELHKCEKPLPDQAFFVLHNMHSNCVSFECKTDPGVFIGVKDNHLALIKVDSSENLCTENILFKLSET
SV2A protein in the lungs (immunoblot) (SV2A protein [2]; IL-33 100 ng intranasal, 4 hr): reduction; also recorded: suppressed | levels of Sv2a mRNA in the lungs (Q-PCR) (Sv2a mRNA): did not suppress | IL33-triggered induction of Il13 and Il5 (Q-PCR) (Il13 and Il5): significantly increased | level of ST2L (immunoblot) (ST2L [7]; Sv2a KO MEFs, IL-33 for 20 hr): dramatic reduction | level of ST2L (immunoblot) (ST2L [7]; WT MEFs, IL-33): not reduced
